Results published in ChEMBL document CHEMBL4619756, “Design, synthesis and biological evaluation of N-hydroxy-aminobenzyloxyarylamide analogues as novel selective κ opioid receptor antagonists” (Bioorg Med Chem Lett, 2020).
pIC50, pKi: −log10 of the molar value.

Key:
[1] = biological target: T1, Kappa-type opioid receptor (Homo sapiens, UniProt P41145); assay: Displacement of [3H]-U69593 from human kappa opiod receptor expressed in CHO cells at 10 uM incubated for 60 mins by liquid scintillation counting method relative to control; assay type: cell-based
T1 sequence (P41145 whole entry): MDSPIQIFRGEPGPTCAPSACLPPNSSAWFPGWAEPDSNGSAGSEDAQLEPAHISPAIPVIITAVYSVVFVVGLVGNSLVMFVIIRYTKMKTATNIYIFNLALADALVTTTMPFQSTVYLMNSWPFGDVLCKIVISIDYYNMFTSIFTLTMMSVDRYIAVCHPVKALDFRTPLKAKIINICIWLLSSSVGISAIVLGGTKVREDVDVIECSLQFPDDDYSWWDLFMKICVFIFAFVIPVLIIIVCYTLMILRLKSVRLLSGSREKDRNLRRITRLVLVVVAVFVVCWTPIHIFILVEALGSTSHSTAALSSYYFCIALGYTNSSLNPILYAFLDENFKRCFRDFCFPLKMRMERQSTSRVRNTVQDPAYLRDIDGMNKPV

[2] = biological target: T2, Delta-type opioid receptor (Homo sapiens, UniProt P41143); assay: Displacement of [3H]-DPDPE from human delta opiod receptor expressed in human HEK293 cells at 10 uM incubated for 60 mins by liquid scintillation counting method relative to control; assay type: cell-based
T2 sequence (P41143 whole entry): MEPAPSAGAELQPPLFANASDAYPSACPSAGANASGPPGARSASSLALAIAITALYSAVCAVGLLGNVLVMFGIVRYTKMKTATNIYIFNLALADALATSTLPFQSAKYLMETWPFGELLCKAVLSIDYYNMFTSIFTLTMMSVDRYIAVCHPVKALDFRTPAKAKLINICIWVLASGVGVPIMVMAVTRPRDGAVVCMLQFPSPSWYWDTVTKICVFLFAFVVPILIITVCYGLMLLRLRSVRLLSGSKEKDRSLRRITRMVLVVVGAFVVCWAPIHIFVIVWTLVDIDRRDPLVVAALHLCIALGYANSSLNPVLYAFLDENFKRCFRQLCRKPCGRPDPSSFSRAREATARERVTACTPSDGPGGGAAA

[3] = biological target: T1, Kappa-type opioid receptor; assay: Displacement of [3H]-U69593 from human kappa opiod receptor expressed in CHO cells at 1 uM incubated for 60 mins by liquid scintillation counting method relative to control; assay type: cell-based
[4] = biological target: T2, Delta-type opioid receptor; assay: Displacement of [3H]-DPDPE from human delta opiod receptor expressed in human HEK293 cells at 1 uM incubated for 60 mins by liquid scintillation counting method relative to control; assay type: cell-based
Mu-type opioid receptor [5] = biological target: T3, Mu-type opioid receptor (Homo sapiens, UniProt P35372); assay: Displacement of [3H]-DAMGO from human mu opiod receptor expressed in CHO cells at 10 uM incubated for 60 mins by liquid scintillation counting method relative to control; assay type: cell-based
T3 sequence (P35372 whole entry): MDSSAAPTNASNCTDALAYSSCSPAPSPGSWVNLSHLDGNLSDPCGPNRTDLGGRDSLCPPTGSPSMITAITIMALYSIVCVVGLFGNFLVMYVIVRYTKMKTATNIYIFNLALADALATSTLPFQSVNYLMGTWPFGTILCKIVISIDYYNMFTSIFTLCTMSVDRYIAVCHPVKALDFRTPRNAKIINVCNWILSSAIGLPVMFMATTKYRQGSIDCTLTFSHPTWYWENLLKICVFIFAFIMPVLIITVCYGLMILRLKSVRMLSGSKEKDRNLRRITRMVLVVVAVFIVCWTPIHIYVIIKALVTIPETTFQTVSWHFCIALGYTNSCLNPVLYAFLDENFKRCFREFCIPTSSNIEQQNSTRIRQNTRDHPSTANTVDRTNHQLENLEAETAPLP

Mu-type opioid receptor [6] = biological target: T3, Mu-type opioid receptor; assay: Displacement of [3H]-DAMGO from human mu opiod receptor expressed in CHO cells at 1 uM incubated for 60 mins by liquid scintillation counting method relative to control; assay type: cell-based
Homo sapiens [7] = organism: Homo sapiens; assay: Selectivity index, ratio of Ki for human delta opiod receptor expressed […] for human kappa opiod receptor expressed in CHO cells; assay type: cell-based
Homo sapiens [8] = organism: Homo sapiens; assay: Selectivity index, ratio of Ki for human mu opiod receptor expressed in CHO cells to Ki for human kappa opiod receptor expressed in CHO cells; assay type: cell-based
[9] = biological target: T2, Delta-type opioid receptor; assay: Displacement of [3H]-DPDPE from human delta opiod receptor expressed in human HEK293 cells incubated for 60 mins by liquid scintillation counting method; assay type: cell-based
[10] = biological target: T1, Kappa-type opioid receptor; assay: Displacement of [3H]-U69593 from human kappa opiod receptor expressed in CHO cells incubated for 60 mins by liquid scintillation counting method; assay type: cell-based
Mu-type opioid receptor [11] = biological target: T3, Mu-type opioid receptor; assay: Displacement of [3H]-DAMGO from human mu opiod receptor expressed in CHO cells incubated for 60 mins by liquid scintillation counting method; assay type: cell-based
Homo sapiens [12] = organism: Homo sapiens; assay: Selectivity index, ratio of IC50 for human delta opiod receptor expressed in HEK293 cells to IC50 for human kappa opiod receptor expressed in CHO cells
Homo sapiens [13] = organism: Homo sapiens; assay: Selectivity index, ratio of IC50 for human mu opiod receptor expressed in CHO cells to IC50 for human kappa opiod receptor expressed in CHO cells; assay type: cell-based
[14] = biological target: T2, Delta-type opioid receptor; assay: Antagonist activity at human delta opiod receptor expressed in human HEK293 cells assessed as inhibition of DPDPE-induced [35S]GTPgammaS binding incubated for 2 hrs by microbeta liquid scintillation counting method; assay type: functional, cell-based
Mu-type opioid receptor [15] = biological target: T3, Mu-type opioid receptor; assay: Antagonist activity at human mu opiod receptor expressed in CHO cells assessed as inhibition of DAMGO-induced [35S]GTPgammaS binding incubated for 4 hrs by microbeta liquid scintillation counting method; assay type: functional, cell-based
[16] = biological target: T1, Kappa-type opioid receptor; assay: Antagonist activity at human kappa opiod receptor expressed in CHO cells assessed as inhibition of U69593-induced [35S]GTPgammaS binding incubated for 4 hrs by microbeta liquid scintillation counting method; assay type: functional, cell-based

Compound | inhibition [1] | inhibition [2] | inhibition [3] | inhibition [4] | inhibition (Mu-type opioid receptor [5]) | inhibition (Mu-type opioid receptor [6]) | pKi [9] | pKi [10] | pKi (Mu-type opioid receptor [11]) | pIC50 [14] | pIC50 (Mu-type opioid receptor [15]) | pIC50 [16] | Ratio Ki (Homo sapiens [7]) | Ratio Ki (Homo sapiens [8]) | Ratio IC50 (Homo sapiens [12]) | Ratio IC50 (Homo sapiens [13])
O=c1[nH]oc2cc(Oc3ccc(CN4CCCC4c4ccc(Cl)cc4)cc3)ccc12 (stereo not given) | 83.5% | 35.9% | 57.6% | 15.7% | 54.5% | 47% | – | – | – | – | – | – | – | – | – | –
Cc1cc(C)cc(C2CCCN2Cc2ccc(Oc3ccc4c(=O)[nH]oc4c3F)cc2)c1 (stereo not given) | 36.4% | 33.3% | 0% | 0% | 21.1% | 0% | – | – | – | – | – | – | – | – | – | –
Cc1cc(C)cc(C2CCCN2Cc2ccc(Oc3ccc4c(=O)[nH]oc4c3)c(F)c2)c1 (stereo not given) | 85.2% | 10.7% | 37.2% | 0% | 9.5% | 0% | – | – | – | – | – | – | – | – | – | –
COc1ccc(C2CCCN2Cc2ccc(Oc3ccc(C(=O)NO)cc3F)cc2)cc1 (stereo not given) | 77.4% | 15.8% | 34.9% | 6.2% | 43.1% | 11% | – | – | – | – | – | – | – | – | – | –
Cc1cc(C)cc(C2CCCN2Cc2ccc(Oc3ccc(C(N)=O)cc3F)cc2)c1 (racemic) | – | – | – | 49.5% | 87.2% | 52.7% | 6.98 | 7.85 | 7.03 | 6.96 | 7.53 | 8.11 | 7.5 | 6.7 | 14.1 | 3.8
O=c1[nH]oc2c(Cl)c(Oc3ccc(CN4CCCC4c4ccc(Cl)cc4)cc3)ccc12 (stereo not given) | 0% | 52.2% | 0% | 23.9% | 41.1% | 21.7% | – | – | – | – | – | – | – | – | – | –
COc1ccc(C2CCCN2Cc2ccc(Oc3ccc4c(=O)[nH]oc4c3Cl)cc2)cc1 (stereo not given) | 39.9% | 39.3% | 18.8% | 18% | 32.2% | 17.7% | – | – | – | – | – | – | – | – | – | –
COc1ccc(C2CCCN2Cc2ccc(Oc3ccc4c(=O)[nH]oc4c3F)cc2)cc1 (stereo not given) | 19.1% | 49.7% | 0% | 23.7% | 41% | 19.2% | – | – | – | – | – | – | – | – | – | –
COc1cccc(C2CCCN2Cc2ccc(Oc3ccc(C(=O)NO)cc3)cc2)c1 (stereo not given) | 84.3% | 7.1% | 33.8% | 0% | 31.6% | 13.5% | – | – | – | – | – | – | – | – | – | –
Cc1cc(C)cc(C2CCCN2Cc2ccc(Oc3ccc(C(=O)NO)cc3)cc2)c1 (stereo not given) | 84.7% | 6.5% | 39.5% | 0% | 36% | 10.7% | – | – | – | – | – | – | – | – | – | –
COc1ccc(C2CCCN2Cc2ccc(Oc3ccc4c(=O)[nH]oc4c3)cc2)cc1 (stereo not given) | 66.9% | 40.7% | 55.7% | 33.3% | 50.6% | 42.2% | – | – | – | – | – | – | – | – | – | –
O=c1[nH]oc2c(F)c(Oc3ccc(CN4CCCC4c4cccc(Cl)c4)cc3)ccc12 (stereo not given) | 57.2% | 38.2% | 20% | 0% | 0% | 0% | – | – | – | – | – | – | – | – | – | –

Further lines, with some results ahead:

inhibition [1] | inhibition [2] | inhibition [3] | inhibition [4] | inhibition (Mu-type opioid receptor [5]) | inhibition (Mu-type opioid receptor [6]) | pKi [9] | pKi [10] | pKi (Mu-type opioid receptor [11]) | pIC50 [14] | pIC50 (Mu-type opioid receptor [15]) | pIC50 [16] | Compound | Ratio Ki (Homo sapiens [7]) | Ratio Ki (Homo sapiens [8]) | Ratio IC50 (Homo sapiens [12]) | Ratio IC50 (Homo sapiens [13])
56.9% | 49.3% | 26.7% | 17.2% | 37.3% | 9.4% | – | – | – | – | – | – | Cc1cc(C)cc(C2CCCN2Cc2ccc(Oc3ccc4c(=O)[nH]oc4c3F)c(F)c2)c1 (stereo not given) | – | – | – | –
91.6% | 54.8% | 70.6% | 33.9% | 74% | 49.4% | 5.30 | 5.85 | 5.83 | – | – | – | Cc1cc(C)cc(C2CCCN2Cc2ccc(Oc3ccc4c(=O)[nH]oc4c3)cc2)c1 (stereo not given) | 3.5 | 1 | – | –
39.2% | 9.6% | 0% | 0% | 35.8% | 22.5% | – | – | – | – | – | – | O=c1[nH]oc2c(F)c(Oc3ccc(CN4CCCC4c4ccc(Cl)cc4)cc3)ccc12 (stereo not given) | – | – | – | –
29% | 28.4% | 9.7% | 0% | 6.2% | 0% | – | – | – | – | – | – | COc1cccc(C2CCCN2Cc2ccc(Oc3ccc4c(=O)[nH]oc4c3F)cc2)c1 (stereo not given) | – | – | – | –
85.3% | 13.8% | 51.6% | 0% | 45.9% | 21.9% | – | – | – | – | – | – | O=C(NO)c1ccc(Oc2ccc(CN3CCCC3c3ccccc3)cc2)cc1 (stereo not given) | – | – | – | –
80.4% | – | 42.5% | – | 64.4% | 22.6% | – | – | – | – | – | – | COc1cccc(C2CCCN2Cc2ccc(Oc3ccc(C(=O)NO)cc3F)cc2)c1 (stereo not given) | – | – | – | –
47.4% | 32.9% | 20.1% | 18% | 45.7% | 21.4% | – | – | – | – | – | – | Cc1cc(C)cc(C2CCCN2Cc2ccc(Oc3ccc4c(=O)[nH]oc4c3F)c(Cl)c2)c1 (stereo not given) | – | – | – | –
45.4% | 44.9% | 0% | 0% | 32.5% | 19.2% | – | – | – | – | – | – | O=c1[nH]oc2c(Cl)c(Oc3ccc(CN4CCCC4c4cccc(Cl)c4)cc3)ccc12 (stereo not given) | – | – | – | –
74.3% | 34.4% | 46.1% | 25.6% | 25.8% | 0% | – | – | – | – | – | – | O=C(NO)c1ccc(Oc2ccc(CN3CCCC3c3ccc(Cl)cc3)cc2)c(F)c1 (stereo not given) | – | – | – | –
24.8% | 52.5% | 0% | 20.7% | 0% | 0% | – | – | – | – | – | – | O=c1[nH]oc2c(F)c(Oc3ccc(CN4CCCC4c4cccc(F)c4)cc3)ccc12 (stereo not given) | – | – | – | –
54.7% | 26.4% | 30.9% | 0% | 57.3% | 16.5% | – | – | – | – | – | – | O=C(NO)c1ccc(Oc2ccc(CN3CCCC3c3cccc(Cl)c3)cc2)c(F)c1 (stereo not given) | – | – | – | –
11.6% | 22.3% | 0% | 0% | 0% | 0% | – | – | – | – | – | – | Cc1cc(C)cc(C2CCCN2Cc2ccc(Oc3ccc4c(=O)[nH]oc4c3Cl)cc2)c1 (stereo not given) | – | – | – | –
80.6% | 28.4% | 45.8% | 16.8% | 73.2% | 25.8% | < 5.00 | 6.30 | 5.55 | – | – | – | O=C(NO)c1ccc(Oc2ccc(CN3CCCC3c3cccc(F)c3)cc2)c(F)c1 (stereo not given) | > 20 | 4.6 | – | –
86% | 24.4% | 52.3% | 3.9% | 40.4% | 12.8% | < 5.00 | 6.74 | 5.64 | < 5.30 | 6.70 | 6.75 | COc1ccc(C2CCCN2Cc2ccc(Oc3ccc(C(=O)NO)cc3)cc2)cc1 (stereo not given) | > 55.5 | 12.8 | > 28 | 1.1
16.2% | 37.9% | 0% | 8.5% | 0% | 0% | – | – | – | – | – | – | O=c1[nH]oc2c(Cl)c(Oc3ccc(CN4CCCC4c4cccc(F)c4)cc3)ccc12 (stereo not given) | – | – | – | –
0% | 60.6% | 0% | 19.7% | 0% | 0% | – | – | – | – | – | – | COc1cccc(C2CCCN2Cc2ccc(Oc3ccc4c(=O)[nH]oc4c3Cl)cc2)c1 (stereo not given) | – | – | – | –
73.2% | 49.1% | 38.4% | 11.6% | 59.2% | 14.3% | – | – | – | – | – | – | COc1cc(CN2CCCC2c2cc(C)cc(C)c2)ccc1Oc1ccc2c(=O)[nH]oc2c1 (stereo not given) | – | – | – | –
69.8% | 16.9% | 23.8% | 0% | 9.8% | 0% | – | – | – | – | – | – | Cc1cc(C)cc(C2CCCN2Cc2ccc(Oc3ccc4c(=O)[nH]oc4c3)c(Cl)c2)c1 (stereo not given) | – | – | – | –
